Data taken from patent publication US20070112176A1, “Lipid membrane structure containing anti-mt-mmp monoclonal antibody” (DAIICHI PHARMACEUTICAL CO., LTD., priority 2003, published 2007).

System: HT1080 cells
Experiment: Cytostatic test of liposomes with various antibody binding ratios, Test Example 6
Format: cell-based, human
Settings: control group; free DOX 100 μg/mL, used as start value
Procedure: According to the method described in Test Example 2-1), the cytostatic ability of various antibody-binding liposomes was evaluated by using the HT1080 cells. The cells were adhered to a 96-well plate, then added with anti-MT1-MMP monoclonal antibody (clone number: 222-1D8)-binding and anticancer agent-encapsulating liposomes (Fab′(222-1D8)-DOX-LP), and cultured for 1 hour. After the culture, the cells were washed, added with a fresh medium, and further cultured for 24 hours. After the cells were washed and cultured for 24 hours, a cell counting assay was performed, and A450 serving as an index of viable cell count was plotted. Means±S.D. (n=4) was indicated for each group. As control, only the medium (control), anticancer agent-encapsulating liposomes not bound with antibody (DOX-LP (Preparation Example (11)) or the anticancer agent alone (free DOX) was added instead of Fab′(222-1D8)-DOX-LP. A group in which only the medium was similarly treated without adding the cells was used as a blank. It was confirmed by multiple times of experiments that the start value used in the calculation of inhibitory rate and the like in Test Example 2 was not substantially different from the absorbance obtained with 100 μg/mL of DOX alone (free DOX) used as the sample, and therefore the value obtained for the 100 μg/mL free DOX group was used as the start value. […]

COc1cccc2c1C(=O)c1c(O)c3c(c(O)c1C2=O)C[C@@](O)(C(=O)CO)C[C@@H]3O[C@H]1C[C@H](N)[C@H](O)[C@H](C)O1 [Free DOX, doxorubicin]
Cytostatic ratio for HT1080 cells: 100%
